Key:
Format in all cases: biochemical
Conditions in all cases: continuous assay 60 min, reaction initiated by adding enzyme
mICE = molecular target: T1, mICE (Mus musculus, UniProt P29452); experiment: Dissociation constant Ki and irreversible rate constant k3 for irreversible inhibitors, ICE
T1 sequence (P29452 123-296 limits assumed): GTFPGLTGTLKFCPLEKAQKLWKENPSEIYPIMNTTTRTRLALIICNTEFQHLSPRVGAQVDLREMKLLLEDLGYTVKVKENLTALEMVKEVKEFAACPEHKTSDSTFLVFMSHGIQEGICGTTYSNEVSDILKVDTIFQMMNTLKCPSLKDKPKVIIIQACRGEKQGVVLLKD
T1 sequence (P29452 315-402 limits assumed): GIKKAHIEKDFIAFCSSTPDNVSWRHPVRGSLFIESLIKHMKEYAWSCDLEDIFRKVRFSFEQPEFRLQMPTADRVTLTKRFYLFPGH
Source text: (§1) For the irreversible inhibition of a ICE/ced-3 Family Protease enzyme with a competitive irreversible inhibitor; using the model represented by the following formulas: […]
(§2) The product formation at time t may be expressed as:
(§3) [formula] where E, I, EI and E-I denote the active enzyme, inhibitor, non-covalent enzyme-inhibitor complex and covalent enzyme-inhibitor adduct, respectively. The Ki value is the overall dissociation constant of the reversible binding steps, and k3 is the irreversible rate constant. The [S] and Ks values are the substate concentration and dissociation constant of the substrate bound to the enzyme, respectively. [E]^T is the total enzyme concentration.
(§4) The above equations were used to determine the Ki and k3 values of a given inhibitor bound to a ICE/ced-3 family protease. Thus, a continuous assay was run for sixty minutes at various concentrations of the inhibitor and the substrate. The assay was formulated essentially the same as described above for generating the data in Table 1, except that the reaction was initiated by adding the enzyme to the substrate-inhibitor mixture. The Ki and k3 values were obtained by simulating the product AMC formation as a function of time according to Equation 1.
(§5) The reference compound for this assay was Cbz-ValAlaAsp-CH2F and the values are denoted in Table 2 as “Reference”. The Ki values in Table 2 are in micromolar (μM). The k3/Ki values are in moles^−1 seconds^−1 (M^−1s^−1).

CPP32 = molecular target: T2, CPP32 (Homo sapiens, UniProt P42574); experiment: Dissociation constant Ki and irreversible rate constant k3 for irreversible inhibitors, CPP32
T2 sequence (P42574 29-175 limits assumed): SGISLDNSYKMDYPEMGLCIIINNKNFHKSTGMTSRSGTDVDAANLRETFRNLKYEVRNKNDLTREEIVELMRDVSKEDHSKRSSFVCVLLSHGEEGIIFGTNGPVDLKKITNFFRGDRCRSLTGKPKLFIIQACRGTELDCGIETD
T2 sequence (P42574 176-277 limits assumed): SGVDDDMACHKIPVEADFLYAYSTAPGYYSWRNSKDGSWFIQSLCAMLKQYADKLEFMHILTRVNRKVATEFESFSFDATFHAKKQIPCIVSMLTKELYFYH
Source text: as §1, §2, §3, §4, §5

MCH-5 = MCH-5 (Homo sapiens, UniProt Q14790); experiment: Dissociation constant Ki and irreversible rate constant k3 for irreversible inhibitors, Mch5
Sequence of MCH-5 (Q14790 217-374 limits assumed, species assumed): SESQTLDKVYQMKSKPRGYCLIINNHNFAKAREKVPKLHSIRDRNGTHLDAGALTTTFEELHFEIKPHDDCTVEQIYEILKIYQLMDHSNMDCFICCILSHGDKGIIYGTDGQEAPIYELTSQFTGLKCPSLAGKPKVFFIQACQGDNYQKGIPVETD
Sequence of MCH-5 (Q14790 385-479 limits assumed, species assumed): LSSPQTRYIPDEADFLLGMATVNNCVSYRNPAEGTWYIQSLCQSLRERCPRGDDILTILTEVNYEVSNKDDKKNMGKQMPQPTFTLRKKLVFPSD
Source text: as §1, §2, §3, §4, §5

MCH-2 = molecular target: T3, MCH-2 (Homo sapiens, UniProt P55212); experiment: Dissociation constant Ki and irreversible rate constant k3 for irreversible inhibitors, Mch2
T3 sequence (P55212 24-179 limits assumed): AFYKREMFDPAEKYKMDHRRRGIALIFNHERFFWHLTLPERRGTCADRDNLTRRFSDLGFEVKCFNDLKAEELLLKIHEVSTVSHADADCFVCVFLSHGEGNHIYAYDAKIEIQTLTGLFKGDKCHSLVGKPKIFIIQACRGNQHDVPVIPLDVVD
T3 sequence (P55212 194-293 limits assumed): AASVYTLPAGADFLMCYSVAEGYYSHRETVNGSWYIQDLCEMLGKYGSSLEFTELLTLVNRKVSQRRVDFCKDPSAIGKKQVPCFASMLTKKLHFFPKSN
Source text: as §1, §2, §3, §4, §5

| Structure (SMILES) | Ki (mICE) | mICE k3/Ki (mICE) | CPP32 k3/Ki (CPP32) | Ki (CPP32) | Ki (MCH-5) | MCH-5 k3/Ki (MCH-5) | Ki (MCH-2) | MCH-2 k3/Ki (MCH-2) |
| --- | --- | --- | --- | --- | --- | --- | --- | --- |
| CC(C)[C@H](NC(=O)COc1cccc2ccccc12)C(=O)N[C@@H](CC(=O)O)C(=O)COP(C)(C)=O [Example 105] | 413 nM | 18,000 M^−1s^−1 | 44,900 M^−1s^−1 | 341 nM | 160 nM | 3,700 M^−1s^−1 | 233 nM | 6,090 M^−1s^−1 |
| CC(C)[C@H](NC(=O)COc1cccc2ccccc12)C(=O)N[C@@H](CC(=O)O)C(=O)COc1c(F)cc(F)cc1F [Example 78] | 137 nM | 20,700 M^−1s^−1 | 114,000 M^−1s^−1 | 38 nM | 202 nM | 9,080 M^−1s^−1 | 81 nM | 5,140 M^−1s^−1 |
| CC(C)[C@H](NC(=O)COc1cccc2ccccc12)C(=O)NC(CC(=O)O)C(=O)CF (mixture of isomers) [Example 53, (3RS)-3-[N-((1-Naphthyloxy)Acetyl)Valinyl]Amino-5-Fluoro-4-Oxopentanoic Acid] | 53 nM | 129,000 M^−1s^−1 | 207,000 M^−1s^−1 | 79 nM | 40 nM | 71,700 M^−1s^−1 | 38 nM | 36,800 M^−1s^−1 |
| CC(C)[C@H](NC(=O)COc1cccc2ccccc12)C(=O)N[C@@H](CC(=O)O)C(=O)COc1c(-c2ccccc2)oc2ccccc2c1=O [Example 115] | 324 nM | 8,740 M^−1s^−1 | 127,000 M^−1s^−1 | 46 nM | 4670 nM | 0 M⁻¹ s⁻¹ | 54 nM | 0 M⁻¹ s⁻¹ |
| CC(C)[C@H](NC(=O)COc1cccc2ccccc12)C(=O)N[C@@H](CC(=O)O)C(=O)COn1nnc2ccccc2c1=O [Example 62, (3S)-3-[N-((1-Naphthyloxy)Acetyl)Valinyl]Amino-5-(1′,2′,3′-Benzotriazin-4′(3H)-on-3′-yloxy)-4-Oxopentanoic Acid] | 253 nM | 45,400 M^−1s^−1 | 169,000 M^−1s^−1 | 52 nM | 48 nM | 18,200 M^−1s^−1 | 42 nM | 44,000 M^−1s^−1 |
| CC(C)[C@H](NC(=O)COc1ccccc1-c1ccccc1)C(=O)N[C@@H](CC(=O)O)C(=O)COc1c(F)c(F)cc(F)c1F [Example 152] | 191 nM | 29,300 M^−1s^−1 | 241,000 M^−1s^−1 | 29 nM | 66 nM | 16,600 M^−1s^−1 | 11 nM | 191,000 M^−1s^−1 |
| CC(C)C[C@H](NC(=O)COc1ccccc1-c1ccccc1)C(=O)N[C@@H](CC(=O)O)C(=O)COC(=O)c1c(Cl)cccc1Cl [Example 162] | 319 nM | 22,200 M^−1s^−1 | 246,000 M^−1s^−1 | 44 nM | 128 nM | 5,290 M^−1s^−1 | 29 nM | 104,000 M^−1s^−1 |
| CC(C)[C@H](NC(=O)CCOc1ccccc1)C(=O)N[C@@H](CC(=O)O)C(=O)COc1c(F)c(F)cc(F)c1F [Example 160, (3S)-3-[N-(3′-(Phenoxy)Propionyl)Valinyl]Amino-5-(2,3,5,6-Tetrafluorophenoxy)-4-Oxopentanoic Acid] | 1180 nM | 11,400 M^−1s^−1 | 33,000 M^−1s^−1 | 132 nM | 351 nM | 3,680 M^−1s^−1 | 93 nM | 36,600 M^−1s^−1 |
| C[C@H](NC(=O)COc1ccc2ccccc2c1)C(=O)NC(CC(=O)O)C(=O)COc1c(F)c(F)cc(F)c1F (stereo partly drawn) [Example 176] | 480 nM | 11,100 M^−1s^−1 | 4,330 M^−1s^−1 | 3080 nM | 1160 nM | 684 M⁻¹ s⁻¹ | 1260 nM | 1,330 M^−1s^−1 |
| CC(C)C[C@H](NC(=O)COc1ccccc1-c1ccccc1)C(=O)NC(CC(=O)O)C(=O)CF (mixture of isomers) [Example 57, (3RS)-3-[N-((2-Phenylphenoxy)Acetyl)Leucinyl]Amino-5-Fluoro-4-Oxopentanoic Acid] | 120 nM | 37,400 M^−1s^−1 | 177,000 M^−1s^−1 | 42 nM | 66 nM | 15,900 M^−1s^−1 | 30 nM | 91,000 M^−1s^−1 |
| Cc1nnc(SCC(=O)[C@H](CC(=O)O)NC(=O)[C@@H](NC(=O)COc2cccc3ccccc23)C(C)C)s1 [Example 128] | 213 nM | 5,480 M^−1s^−1 | 5,240 M^−1s^−1 | 254 nM | 4480 nM | 0 M⁻¹ s⁻¹ | 2410 nM | 83 M⁻¹ s⁻¹ |
| CC(C)[C@H](NC(=O)COc1cccc2ccccc12)C(=O)N[C@@H](CC(=O)O)C(=O)COP(=O)(Cc1ccccc1)c1ccccc1 (stereo partly drawn) [Example 107] | 66 nM | 106,000 M^−1s^−1 | 424,000 M^−1s^−1 | 14 nM | 48 nM | 27,800 M^−1s^−1 | 21 nM | 187,000 M^−1s^−1 |
| CC(C)[C@H](NC(=O)CCOc1cccc2ccccc12)C(=O)N[C@@H](CC(=O)O)C(=O)COC(=O)c1c(Cl)cccc1Cl [Example 158] | 168 nM | 34,300 M^−1s^−1 | 98,200 M^−1s^−1 | 109 nM | 264 nM | 1,610 M^−1s^−1 | 22 nM | 103,000 M^−1s^−1 |
| CC(C)C[C@H](NC(=O)COc1ccccc1-c1ccccc1)C(=O)N[C@@H](CC(=O)O)C(=O)COc1c(F)c(F)cc(F)c1F [Example 164] | 467 nM | 24,000 M^−1s^−1 | 137,000 M^−1s^−1 | 63 nM | 223 nM | 6,190 M^−1s^−1 | 23 nM | 91,700 M^−1s^−1 |
| CC(C)[C@H](NC(=O)COc1cccc2ccccc12)C(=O)N[C@@H](CC(=O)O)C(=O)COc1ccnc(C(F)(F)F)n1 [Example 121] | 242 nM | 24,800 M^−1s^−1 | 114,000 M^−1s^−1 | 47 nM | 276 nM | 3,200 M^−1s^−1 | 120 nM | 5,150 M^−1s^−1 |
| Cc1cc(OCC(=O)[C@H](CC(=O)O)NC(=O)[C@@H](NC(=O)COc2cccc3ccccc23)C(C)C)cc(=O)o1 [Example 111] | 308 nM | 6,500 M^−1s^−1 | 21,900 M^−1s^−1 | 220 nM | 2870 nM | 170 M⁻¹ s⁻¹ | 2160 nM | 230 M⁻¹ s⁻¹ |
| CC(C)[C@H](NC(=O)COc1cccc2ccccc12)C(=O)N[C@@H](CC(=O)O)C(=O)COP(C)(=O)c1ccc(F)cc1 (stereo partly drawn) [Example 108] | 147 nM | 37,900 M^−1s^−1 | 140,000 M^−1s^−1 | 41 nM | 105 nM | 9,890 M^−1s^−1 | 37 nM | 60,400 M^−1s^−1 |
| C[C@H](NC(=O)COc1ccccc1-c1ccccc1)C(=O)NC(CC(=O)O)C(=O)COc1c(F)c(F)cc(F)c1F (stereo partly drawn) [Example 177] | 225 nM | 45,600 M^−1s^−1 | 89,700 M^−1s^−1 | 86 nM | 439 nM | 4,370 M^−1s^−1 | 47 nM | 21,100 M^−1s^−1 |

— patent US7157430B2, “(Substituted)acyl dipeptidyl inhibitors of the ICE/CED-3 family of cysteine proteases” (Idun Pharmaceuticals, Inc., priority 1998, dated 2007)
